Active and inactive are the calls of the source. The rule behind the calls is not given here.
How the values were obtained:
[1] = tested on: MDA-MB-231; test: Antiproliferative activity against human MDA-MB-231 cells after 48 hrs by MTT assay; type: functional, cell-based; settings: MDA-MB-231, 48 h
[2] = tested on: MDA-MB-231; test: Antiproliferative activity against human MDA-MB-231 cells at 20 uM after 48 hrs by MTT assay; type: functional, cell-based
[3] = tested on: MIA PaCa-2; test: Induction of apoptosis in human MIAPaCa2 cells assessed as necrotic cells at 0.6 uM after 48 hrs by Annexin V-FITC/propidium iodide staining based flow cytometry (reference value: 0.06%); type: functional
[4] = tested on: MIA PaCa-2; test: Induction of apoptosis in human MIAPaCa2 cells assessed as late apoptotic cells at 0.6 uM after 12 hrs by Annexin V-FITC/propidium iodide staining based flow cytometry (reference value: 0.07%); type: functional
[5] = tested on: MIA PaCa-2; test: Cell cycle arrest in human MIAPaCa2 cells assessed as accumulation in S phase at 0.6 uM after 24 hrs by propidium iodide staining based flow cytometry (reference value: 38%); type: functional
[6] = tested on: MIA PaCa-2; test: Induction of apoptosis in human MIAPaCa2 cells assessed as upregulation of cleaved PARP protein expression at 0.2 to 0.8 uM after 12 to 48 hrs by western immunoblot analysis; type: functional, cell-based
[7] = tested on: A549; test: Antiproliferative activity against human A549 cells after 48 hrs by MTT assay; type: functional, cell-based; settings: A549, 48 h
[8] = tested on: MIA PaCa-2; test: Induction of apoptosis in human MIAPaCa2 cells assessed as late apoptotic cells at 0.6 uM after 24 hrs by Annexin V-FITC/propidium iodide staining based flow cytometry (reference value: 0.16%); type: functional
[9] = tested on: MIA PaCa-2; test: Induction of apoptosis in human MIAPaCa2 cells assessed as necrotic cells at 0.6 uM after 36 hrs by Annexin V-FITC/propidium iodide staining based flow cytometry (reference value: 0.06%); type: functional
[10] = tested on: NCI-H441; test: Antiproliferative activity against human H441 cells after 48 hrs by MTT assay; type: functional, cell-based; settings: NCI-H441, 48 h
[11] = tested on: U-87 MG; test: Antiproliferative activity against human U87 cells after 48 hrs by MTT assay; type: functional, cell-based, U-87MG ATCC
[12] = tested on: MIA PaCa-2; test: Induction of apoptosis in human MIAPaCa2 cells assessed as early apoptotic cells at 0.6 uM after 36 hrs by Annexin V-FITC/propidium iodide staining based flow cytometry (reference value: 1.7%); type: functional
[13] = tested on: MIA PaCa-2; test: Induction of apoptosis in human MIAPaCa2 cells assessed as down regulation of Bcl-2 protein expression at 0.2 to 0.8 uM after 12 to 48 hrs by western immunoblot analysis; type: functional, cell-based
[14] = tested on: MIA PaCa-2; test: Induction of apoptosis in human MIAPaCa2 cells assessed as late apoptotic cells at 0.6 uM after 48 hrs by Annexin V-FITC/propidium iodide staining based flow cytometry (reference value: 0.21%); type: functional
[15] = tested on: MIA PaCa-2; test: Cell cycle arrest in human MIAPaCa2 cells assessed as accumulation in G2/M phase at 0.6 uM after 48 hrs by propidium iodide staining based flow cytometry relative to control; type: functional
[16] = tested on: MIA PaCa-2; test: Induction of apoptosis in human MIAPaCa2 cells assessed as necrotic cells at 0.6 uM after 24 hrs by Annexin V-FITC/propidium iodide staining based flow cytometry (reference value: 0.06%); type: functional
[17] = tested on: MIA PaCa-2; test: Cell cycle arrest in human MIAPaCa2 cells assessed as accumulation in G2/M phase at 0.6 uM after 24 hrs by propidium iodide staining based flow cytometry relative to control; type: functional
[18] = Antiproliferative activity against human CL1-5 cells after 48 hrs by MTT assay; type: functional, cell-based; settings: CL1-5, 48 h
[19] = tested on: MIA PaCa-2; test: Induction of apoptosis in human MIAPaCa2 cells assessed as live cells at 0.6 uM after 12 hrs by Annexin V-FITC/propidium iodide staining based flow cytometry (reference value: 98.9%); type: functional
[20] = tested on: MIA PaCa-2; test: Cell cycle arrest in human MIAPaCa2 cells assessed as accumulation in S phase at 0.6 uM after 48 hrs by propidium iodide staining based flow cytometry (reference value: 19.7%); type: functional
[21] = tested on: SK-HEP1; test: Antiproliferative activity against human SKHEP1 cells after 48 hrs by MTT assay; type: functional, cell-based; settings: SK-HEP1, 48 h
[22] = tested on: MIA PaCa-2; test: Induction of apoptosis in human MIAPaCa2 cells assessed as necrotic cells at 0.6 uM after 12 hrs by Annexin V-FITC/propidium iodide staining based flow cytometry (reference value: 0.04%); type: functional
[23] = tested on: MIA PaCa-2; test: Induction of apoptosis in human MIAPaCa2 cells assessed as early apoptotic cells at 0.6 uM after 12 hrs by Annexin V-FITC/propidium iodide staining based flow cytometry (reference value: 1%); type: functional
[24] = tested on: MIA PaCa-2; test: Antitumor activity against human MIAPaCa2 cells xenografted in NOD/SCID mouse assessed as tumor growth inhibition at 25 mg/kg, ip administered every 3.5 days per week for 5 weeks measured on day 38 post treatment relative to control; type: functional; settings: MIA PaCa-2, ip, read-out: TGI
[25] = tested on: MIA PaCa-2; test: Induction of apoptosis in human MIAPaCa2 cells assessed as late apoptotic cells at 0.6 uM after 36 hrs by Annexin V-FITC/propidium iodide staining based flow cytometry (reference value: 0.24%); type: functional
[26] = tested on: HCT-116; test: Antiproliferative activity against human HCT116 cells after 48 hrs by MTT assay; type: functional, cell-based; settings: HCT-116, 48 h
[27] = tested on: MIA PaCa-2; test: Induction of apoptosis in human MIAPaCa2 cells assessed as live cells at 0.6 uM after 48 hrs by Annexin V-FITC/propidium iodide staining based flow cytometry (reference value: 98.4%); type: functional
[28] = tested on: NCI-H460; test: Antiproliferative activity against human H460 cells after 48 hrs by MTT assay; type: functional, cell-based; settings: NCI-H460, 48 h
[29] = tested on: MIA PaCa-2; test: Induction of apoptosis in human MIAPaCa2 cells assessed as live cells at 0.6 uM after 36 hrs by Annexin V-FITC/propidium iodide staining based flow cytometry (reference value: 98%); type: functional
[30] = tested on: MIA PaCa-2; test: Induction of apoptosis in human MIAPaCa2 cells assessed as down regulation of Bak protein expression at 0.2 to 0.8 uM after 12 to 48 hrs by western immunoblot analysis; type: functional, cell-based
[31] = Toxicity in NOD/SCID mouse xenografted with human MIAPaCa2 cells assessed as body weight loss at 25 mg/kg, ip administered every 3.5 days per week for 5 weeks; type: organism-based; settings: in vivo
[32] = tested on: Mahlavu; test: Antiproliferative activity against human Mahlavu cells after 48 hrs by MTT assay; type: functional, cell-based
[33] = tested on: MIA PaCa-2; test: Antiproliferative activity against human MIAPaCa2 cells after 48 hrs by MTT assay; type: functional, cell-based; settings: MIA PaCa-2, 48 h
[34] = tested on: MIA PaCa-2; test: Cell cycle arrest in human MIAPaCa2 cells assessed as accumulation in G2/M phase at 0.6 uM after 36 hrs by propidium iodide staining based flow cytometry relative to control; type: functional
[35] = tested on: MIA PaCa-2; test: Induction of apoptosis in human MIAPaCa2 cells assessed as early apoptotic cells at 0.6 uM after 24 hrs by Annexin V-FITC/propidium iodide staining based flow cytometry (reference value: 1.49%); type: functional
[36] = tested on: MIA PaCa-2; test: Induction of apoptosis in human MIAPaCa2 cells assessed as early apoptotic cells at 0.6 uM after 48 hrs by Annexin V-FITC/propidium iodide staining based flow cytometry (reference value: 1.28%); type: functional
[37] = tested on: MIA PaCa-2; test: Induction of apoptosis in human MIAPaCa2 cells assessed as live cells at 0.6 uM after 24 hrs by Annexin V-FITC/propidium iodide staining based flow cytometry (reference value: 98.3%); type: functional
[38] = tested on: MIA PaCa-2; test: Cell cycle arrest in human MIAPaCa2 cells assessed as accumulation in S phase at 0.6 uM after 36 hrs by propidium iodide staining based flow cytometry (reference value: 38%); type: functional

## Oc1ccc2[nH]cc(C(c3ccc(-c4ccc(C(c5c[nH]c6ccc(O)cc56)c5c[nH]c6ccc(O)cc56)cc4)cc3)c3c[nH]c4ccc(O)cc34)c2c1
[1]
  IC50: 10 µM

## Oc1ccc2[nH]cc(C(/C=C/c3ccc(/C=C/C(c4c[nH]c5ccc(O)cc45)c4c[nH]c5ccc(O)cc45)cc3)c3c[nH]c4ccc(O)cc34)c2c1
[1]
  IC50: 2 µM

## Cc1c(C)c(C(c2c[nH]c3ccc(O)cc23)c2c[nH]c3ccc(O)cc23)c(C)c(C)c1C(c1c[nH]c2ccc(O)cc12)c1c[nH]c2ccc(O)cc12
[1]
  IC50: 1.02 µM

## Oc1ccc2[nH]cc(C(c3ccc4ccc(C(c5c[nH]c6ccc(O)cc56)c5c[nH]c6ccc(O)cc56)cc4c3)c3c[nH]c4ccc(O)cc34)c2c1
[1]
  IC50: > 20 µM

## Oc1ccc2[nH]cc(C(c3c[nH]c4ccc(O)cc34)c3ccc(C(c4c[nH]c5ccc(O)cc45)c4c[nH]c5ccc(O)cc45)c4ccccc34)c2c1
[1]
  IC50: 20 µM

## Oc1ccc2[nH]cc(C(c3ccc4cc(C(c5c[nH]c6ccc(O)cc56)c5c[nH]c6ccc(O)cc56)ccc4c3)c3c[nH]c4ccc(O)cc34)c2c1
[1]
  IC50: > 20 µM

## Oc1ccc2[nH]cc(C(Cc3ccc(CC(c4c[nH]c5ccc(O)cc45)c4c[nH]c5ccc(O)cc45)cc3)c3c[nH]c4ccc(O)cc34)c2c1
[1]
  IC50: > 20 µM

## Oc1ccc2[nH]cc(C(c3c(F)c(F)c(C(c4c[nH]c5ccc(O)cc45)c4c[nH]c5ccc(O)cc45)c(F)c3F)c3c[nH]c4ccc(O)cc34)c2c1
[1]
  IC50: 0.56 µM

## Oc1ccc2[nH]cc(C(c3ccc(-c4cc(C(c5c[nH]c6ccc(O)cc56)c5c[nH]c6ccc(O)cc56)c(-c5ccc(C(c6c[nH]c7ccc(O)cc67)c6c[nH]c7ccc(O)cc67)cc5)cc4C(c4c[nH]c5ccc(O)cc45)c4c[nH]c5ccc(O)cc45)cc3)c3c[nH]c4ccc(O)cc34)c2c1
[2]
  Activity: inactive

## Oc1ccc2[nH]cc(C(c3c(Cl)c(Cl)c(C(c4c[nH]c5ccc(O)cc45)c4c[nH]c5ccc(O)cc45)c(Cl)c3Cl)c3c[nH]c4ccc(O)cc34)c2c1
[3]
  Activity: 0.23%
[4]
  Activity: 0.58%
[5]
  Activity: 55.8%
[6]
  Activity: Active
[7]
  IC50: 2.44 µM
[8]
  Activity: 0.3%
[9]
  Activity: 0.2%
[10]
  IC50: 0.6 µM
[11]
  IC50: > 5 µM
[12]
  Activity: 3.21%
[13]
  Activity: Active
[14]
  Activity: 1.18%
[15]
  Activity: 20%
[16]
  Activity: 0.03%
[17]
  Activity: 12%
[18]
  IC50: 0.63 µM
[19]
  Activity: 98.6%
[20]
  Activity: 46.4%
[21]
  IC50: 0.47 µM
[22]
  Activity: 0.09%
[23]
  Activity: 0.71%
[24]
  inhibition in vivo at 25 mg/kg: 35%
[25]
  Activity: 0.96%
[26]
  IC50: 1.32 µM
[27]
  Activity: 93.3%
[28]
  IC50: 0.83 µM
[29]
  Activity: 95.6%
[30]
  Activity: Active
[31]
  Activity: Non-Toxic
[32]
  IC50: 3.5 µM
[1]
  IC50: 0.56 µM
[33]
  IC50: 0.19 µM
[34]
  Activity: 16%
[35]
  Activity: 2.1%
[36]
  Activity: 5.28%
[37]
  Activity: 97.6%
[38]
  Activity: 51.4%

## Oc1ccc2[nH]cc(C(c3ccc4ccc5ccc(C(c6c[nH]c7ccc(O)cc67)c6c[nH]c7ccc(O)cc67)nc5c4n3)c3c[nH]c4ccc(O)cc34)c2c1
[1]
  IC50: > 20 µM

## Oc1ccc2[nH]cc(C(c3c[nH]c4ccc(O)cc34)c3c4ccccc4c(C(c4c[nH]c5ccc(O)cc45)c4c[nH]c5ccc(O)cc45)c4ccccc34)c2c1
[1]
  IC50: 0.71 µM

## Oc1ccc2[nH]cc(C(c3c[nH]c4ccc(O)cc34)c3cccc4c(C(c5c[nH]c6ccc(O)cc56)c5c[nH]c6ccc(O)cc56)cccc34)c2c1
[1]
  IC50: 4 µM

## Cc1cc(C(c2c[nH]c3ccc(O)cc23)c2c[nH]c3ccc(O)cc23)c(C)cc1C(c1c[nH]c2ccc(O)cc12)c1c[nH]c2ccc(O)cc12
[1]
  IC50: 8 µM

## Oc1ccc2[nH]cc(C(/C=C/c3ccc(C(CC(c4c[nH]c5ccc(O)cc45)c4c[nH]c5ccc(O)cc45)c4c[nH]c5ccc(O)cc45)cc3)c3c[nH]c4ccc(O)cc34)c2c1 (stereo not drawn)
[1]
  IC50: > 20 µM

## Oc1ccc2[nH]cc(C(c3cc(Br)c(C(c4c[nH]c5ccc(O)cc45)c4c[nH]c5ccc(O)cc45)cc3Br)c3c[nH]c4ccc(O)cc34)c2c1
[1]
  IC50: 2.45 µM

## Oc1ccc2[nH]cc(C(c3c[nH]c4ccc(O)cc34)c3c4c(c(C(c5c[nH]c6ccc(O)cc56)c5c[nH]c6ccc(O)cc56)c5ccccc35)CCCC4)c2c1
[1]
  IC50: 1.5 µM
